Data taken from US8022215B2, “Fused pyridone M1 receptor positive allosteric modulators” (Merck Sharp & Dohme Corp., priority 2008, dated 2011).
pEC50: −log10 of the molar value.

These molecules were tested against T1, acetylcholine muscarinic M1 receptor (Homo sapiens, UniProt P11229) (assay: muscarinic FLIPR assay: potentiation of acetylcholine (EC20)-stimulated intracellular Ca2+ in CHOnfat/hM1 cells). Conditions: not given.
T1 construct: expressed in transfected cells; host or cells: CHOnfat (CHO cells, Geneticin selection)
T1 sequence (P11229 1-460): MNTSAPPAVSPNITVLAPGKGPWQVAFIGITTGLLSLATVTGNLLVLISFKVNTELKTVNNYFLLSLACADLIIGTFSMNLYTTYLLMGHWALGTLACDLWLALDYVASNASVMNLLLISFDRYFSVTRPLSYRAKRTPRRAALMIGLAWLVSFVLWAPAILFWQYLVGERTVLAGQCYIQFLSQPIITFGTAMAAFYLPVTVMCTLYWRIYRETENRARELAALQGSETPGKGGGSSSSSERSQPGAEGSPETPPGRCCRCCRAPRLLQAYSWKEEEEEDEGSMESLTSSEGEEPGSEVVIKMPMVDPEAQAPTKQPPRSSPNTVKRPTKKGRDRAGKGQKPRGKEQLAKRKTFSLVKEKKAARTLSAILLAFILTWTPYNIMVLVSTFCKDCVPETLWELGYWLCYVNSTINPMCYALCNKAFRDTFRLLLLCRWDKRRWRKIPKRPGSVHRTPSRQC
Type: cell-based
Experimental: The assay studies the effect of one or several concentrations of test compounds on basal or acetylcholine-stimulated Ca^2+ levels using FLIPR.
Compounds are prepared and subjected to a preincubation period of 4 min. Thereafter, a single EC20 concentration of acetylcholine is added to each well (3 nM final). The intracellular Ca^2+ level of each sample is measured and compared to an acetylcholine control to determine any modulatory activity.
Cells: CHOnfat/hM1, hM2, hM3 or hM4 cells are plated 24 hr before the assay at a density of 18,000 cells/well (100 μL) in a 384 well plate. CHOnfat/hM1 and CHOnfat/hM3 Growth Medium: 90% DMEM (Hi Glucose); 10% HI FBS; 2 mM L-glutamine; 0.1 mM NEAA; Pen-Strep; and 1 mg/ml Geneticin, are added. For M2Gqi5CHOnfat and M4Gqi5CHOnfat cells, an additional 600 μg/ml hygromycin is added.
Buffers. […] Dye Loading Buffer: Assay Buffer plus 1% Fetal Bovine Serum and Fluo-4AM/Pluronic Acid Mixture. […] 20% Pluronic Acid Solution stock, with a concentration of 0.04% in Buffer, 0.02% in Assay.
65 μL of 2 mM Fluo-4AM are mixed with 130 μL of 20% Pluronic Acid. The resulting solution and 650 μL FBS is added to the assay buffer for a total volume of 65 mL. Positive Controls: 4-Br-A23187: 10 mM in DMSO; final concentration 10 μM. Acetylcholine: 10 mM in water, working stock at both 20 μM and 30 μM in assay buffer, final concentration of 10 μM. This is used to check the maximum stimulation of the CHOK1/hM1 cells. 20 μM (2×) acetylcholine is added in the preincubation part of the assay, and the 30 μM (3×) stock is added in the second part. (EC20)Acetylcholine: 10 mM in water, working stock of 9 nM (3×), and final concentration in assay is 3 nM. This is used after the preincubation with test compounds. Addition of the EC20 acetylcholine to each well with a test compound will ascertain any modulator activity. 24 wells contain 3 nM acetylcholine alone as a control.
Determining Activity of Putative Compounds:
Four 96-well plates are combined into a 384-well plate using Mosquito Nanolitre Pipetting System by transferring 1 μl of serial diluted compounds to each well, and 1 mM acetylcholine (100× stock concentration) were added as a control. Using Temo, 49 μl assay buffer is added to each well of the 384-well plate right before assay.
In a 96-well Whatman 2 ml Uniplate, 9 nM acetylcholine (3×) is pipetted into wells corresponding to the screening compounds and into control wells. The 30 μM acetylcholine control (3×) is added into control wells and the 3× agonist plate is transferred into a 384-well plate.
Cells are washed three times with 100 μL of buffer, leaving 30 μL of buffer in each well. Using Multimek, 30 μL of Dye Loading Buffer is added into each well and incubated at 37° C., 5% CO2 for up to one hr.
After 60 min, the cells are washed three times with 100 μL of buffer, leaving 30 μL of buffer in each well. The cell plate, screening plate, and agonist addition plates are placed on the platform in the FLIPR and the door is closed. A signal test to check background fluorescence and basal fluorescence signal is performed. Laser intensity is adjusted if necessary.
4 min of preincubation with the test compounds is provided to determine any agonist activity on the M1 receptor by comparison to the 1 mM acetylcholine control. After preincubation, the EC20 value of acetylcholine (3 nM final) is added to determine any modulator activity.
The inflection point is calculated from the FLIPR values and is a measure of activity.

Row | pEC50 | Structure (SMILES)
1 | 5.66 | O=C(O)c1cn(Cc2ccc(-c3ccccc3)cc2)c2c(c1=O)C(NCc1ccccc1)CCC2 (stereo not shown) [Example 72]
2 | 5.04 | CCC1(O)CCCc2c1c(=O)c(C(=O)O)cn2Cc1ccc(-c2ccccc2)cc1 (racemic) [Example 68, (±)-1-(Biphenyl-4-ylmethyl)-5-ethyl-5-hydroxy-4-oxo-1,4,5,6,7,8-hexahydroquinoline-3-carboxylic acid]
3 | 5.39 | O=C(O)c1cn(Cc2ccc(-c3ccccc3)cc2)c2c(c1=O)C(N1CCCC1)CCC2 (stereo not shown) [Example 73]
4 | 5.50 | COc1ccccc1-c1ccc(Cn2cc(C(=O)O)c(=O)c3c2CCCC3O)cc1 (racemic) [Example 27, (±)-5-Hydroxy-1-[(2′-methoxybiphenyl-4-yl)methyl]-4-oxo-1,4,5,6,7,8-hexahydroquinoline-3carboxylic acid]
5 | 4.19 | O=C(O)c1cn(C/C=C/c2ccccc2F)c2c(c1=O)C(=O)CCC2 [Example 15, 1-[(2E)-3-(2-Fluorophenyl)prop-2-en-1-yl]-4,5-dioxo-1,4,5,6,7,8-hexahydroquinoline-3-carboxylic acid]
6 | 6.49 | COc1ccc(-c2ccc(Cn3cc(C(=O)O)c(=O)c4c3CCCC4O)cc2)cn1 (stereo not shown) [Example 53]
7 | 6.50 | N#Cc1ccc(-c2ccc(Cn3cc(C(=O)O)c(=O)c4c3CCCC4O)cc2)cc1 (stereo not shown) [Example 41]
8 | 6.70 | Cn1ccc2cc(-c3ccc(Cn4cc(C(=O)O)c(=O)c5c4CCCC5O)nc3)ccc21 (stereo not shown) [Example 66]
9 | 6.09 | O=C(O)c1cn(Cc2ccc(-c3ccccc3)cc2)c2c(c1=O)CCC2 [Example 1, 1-(Biphenyl-4-ylmethyl)-4-oxo-4,5,6,7-tetrahydro-1H-cyclopenta[b]pyridine-3-carboxylic acid]
10 | 5.82 | CCCCNC1CCCc2c1c(=O)c(C(=O)O)cn2Cc1ccc(-c2ccccc2)cc1 (stereo not shown) [Example 71]
11 | 5.96 | COC1CCCc2c1c(=O)c(C(=O)O)cn2Cc1ccc(-c2ccccc2)cc1 (racemic) [Example 62, (±)-1-(Biphenyl-4-ylmethyl)-5-methoxy-4-oxo-1,4,5,6,7,8-hexahydroquinoline-3-carboxylic acid]

Row | Structure (SMILES) | pEC50
12 | CNC1CCCc2c1c(=O)c(C(=O)O)cn2Cc1ccc(-c2ccccc2)cc1 (stereo not shown) [Example 70] | 5.08

Same assay, conditions: CHOnfat/hM1 cells, FLIPR, 4 min preincubation, then EC20 acetylcholine (3 nM final); read-out: IP Value (inflection point)

Row | pEC50 | Structure (SMILES)
13 | 6.09 | O=C(O)c1cn(Cc2ccc(-c3ccccc3)cc2)c2c(c1=O)C(=O)CCC2 [Example 6]
